Source: PMC8632246, “KCNQ and KCNE Isoform-Dependent Pharmacology Rationalizes Native American Dual Use of Specific Plants as Both Analgesics and Gastrointestinal Therapeutics” (Frontiers in Physiology, 2021)

What was measured:
[1] = biological target: T1, KCNQ2/3 (KCNQ3 subunit) (Homo sapiens, UniProt O43525+O43526); test: two-electrode voltage clamp in Xenopus oocytes, dose response at -70 mV; WL/WL and RA/RA mutants insensitive; assay type: cell-based
T1 construct: human KCNQ2/3 heteromeric channel expressed in Xenopus oocytes; with KCNQ2
T1 sequence (O43525 whole entry): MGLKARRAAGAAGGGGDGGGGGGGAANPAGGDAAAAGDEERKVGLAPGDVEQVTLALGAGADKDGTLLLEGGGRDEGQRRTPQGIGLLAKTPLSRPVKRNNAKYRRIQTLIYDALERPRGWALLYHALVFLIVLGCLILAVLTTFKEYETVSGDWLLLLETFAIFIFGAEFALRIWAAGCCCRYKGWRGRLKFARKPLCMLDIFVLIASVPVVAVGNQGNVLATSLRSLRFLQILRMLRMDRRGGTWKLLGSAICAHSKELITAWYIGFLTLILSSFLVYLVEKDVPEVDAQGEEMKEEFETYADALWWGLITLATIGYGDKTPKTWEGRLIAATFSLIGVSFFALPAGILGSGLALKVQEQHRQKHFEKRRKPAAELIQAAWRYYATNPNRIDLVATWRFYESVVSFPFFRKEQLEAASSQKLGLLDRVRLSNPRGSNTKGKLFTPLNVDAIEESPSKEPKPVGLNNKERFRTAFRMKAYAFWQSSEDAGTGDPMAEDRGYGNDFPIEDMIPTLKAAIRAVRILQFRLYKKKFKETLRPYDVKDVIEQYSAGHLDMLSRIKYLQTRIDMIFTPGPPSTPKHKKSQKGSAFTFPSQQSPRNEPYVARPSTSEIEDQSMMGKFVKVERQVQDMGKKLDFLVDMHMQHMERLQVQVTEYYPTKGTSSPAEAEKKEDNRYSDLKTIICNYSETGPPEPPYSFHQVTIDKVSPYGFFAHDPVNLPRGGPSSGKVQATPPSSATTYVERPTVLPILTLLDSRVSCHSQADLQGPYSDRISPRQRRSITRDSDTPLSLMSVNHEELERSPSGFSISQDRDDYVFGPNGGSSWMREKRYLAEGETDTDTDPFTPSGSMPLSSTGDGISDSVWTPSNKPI
T1 sequence (O43526 whole entry): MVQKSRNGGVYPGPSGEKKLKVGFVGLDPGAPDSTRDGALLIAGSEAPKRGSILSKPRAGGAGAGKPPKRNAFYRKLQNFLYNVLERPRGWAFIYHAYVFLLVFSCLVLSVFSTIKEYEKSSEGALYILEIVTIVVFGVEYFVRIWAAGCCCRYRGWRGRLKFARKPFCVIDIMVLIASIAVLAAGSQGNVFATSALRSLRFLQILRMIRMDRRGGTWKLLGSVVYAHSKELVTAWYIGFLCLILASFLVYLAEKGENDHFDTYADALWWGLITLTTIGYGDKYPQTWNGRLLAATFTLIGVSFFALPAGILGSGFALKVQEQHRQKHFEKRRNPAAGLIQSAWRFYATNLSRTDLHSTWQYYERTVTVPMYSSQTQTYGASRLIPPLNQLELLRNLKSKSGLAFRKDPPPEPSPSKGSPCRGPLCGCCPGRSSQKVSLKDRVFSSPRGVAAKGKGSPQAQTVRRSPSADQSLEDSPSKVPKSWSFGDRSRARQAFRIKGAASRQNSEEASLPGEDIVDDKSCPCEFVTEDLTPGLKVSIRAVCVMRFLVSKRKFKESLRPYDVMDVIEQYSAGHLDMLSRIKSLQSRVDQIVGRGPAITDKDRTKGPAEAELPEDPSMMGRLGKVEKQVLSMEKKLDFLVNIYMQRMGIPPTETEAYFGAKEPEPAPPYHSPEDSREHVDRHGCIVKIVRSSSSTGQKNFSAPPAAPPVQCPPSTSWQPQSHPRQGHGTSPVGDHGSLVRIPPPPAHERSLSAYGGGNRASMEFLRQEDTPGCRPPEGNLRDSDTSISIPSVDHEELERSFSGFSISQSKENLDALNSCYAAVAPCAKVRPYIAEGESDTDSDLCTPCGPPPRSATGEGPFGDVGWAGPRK

[2] = biological target: T2, KCNQ1 (Homo sapiens, UniProt P51787); test: two-electrode voltage clamp in Xenopus oocytes, […] quercetin; assay type: cell-based
T2 construct: homomeric human KCNQ1 expressed in Xenopus oocytes
T2 sequence (P51787 1-676): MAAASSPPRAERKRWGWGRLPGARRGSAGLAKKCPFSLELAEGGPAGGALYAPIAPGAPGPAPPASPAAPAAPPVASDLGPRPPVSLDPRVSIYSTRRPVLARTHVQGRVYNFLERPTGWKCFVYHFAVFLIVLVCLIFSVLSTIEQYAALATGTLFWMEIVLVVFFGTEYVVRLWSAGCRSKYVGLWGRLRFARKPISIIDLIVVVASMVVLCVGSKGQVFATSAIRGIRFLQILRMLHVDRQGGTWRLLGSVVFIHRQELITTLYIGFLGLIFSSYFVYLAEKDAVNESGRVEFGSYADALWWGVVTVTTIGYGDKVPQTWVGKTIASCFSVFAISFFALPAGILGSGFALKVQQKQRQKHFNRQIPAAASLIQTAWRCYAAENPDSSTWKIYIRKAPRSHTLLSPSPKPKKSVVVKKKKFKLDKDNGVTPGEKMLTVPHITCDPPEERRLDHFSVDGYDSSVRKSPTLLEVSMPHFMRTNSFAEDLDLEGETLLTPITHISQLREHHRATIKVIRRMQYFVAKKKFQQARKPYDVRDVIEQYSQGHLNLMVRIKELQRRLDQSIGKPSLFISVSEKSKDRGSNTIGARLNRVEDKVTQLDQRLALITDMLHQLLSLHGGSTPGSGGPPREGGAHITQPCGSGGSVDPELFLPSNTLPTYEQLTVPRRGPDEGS

EC50 [1] [nM] | Compound | two-electrode voltage clamp in Xenopus oocytes, 100 uM quercetin [2]
560 ± 3 | O=C(O)c1cc(O)c(O)c(O)c1 [gallic acid] | –
– | O=c1c(O)c(-c2ccc(O)c(O)c2)oc2cc(O)cc(O)c12 [quercetin] | quercetin enhances both activation and inactivation of homomeric KCNQ1 channels, inducing visible voltage-dependent decay at depolarized potentials
